Results from patent US4070484A, “Antiallergic composition containing aromatic carboxylic amide derivatives and method of using the same” (Kissei Pharmaceutical Co., Ltd., priority 1973, dated 1978).
Entries after “also recorded” stand apart in the source; their conditions may differ. Read-outs that look alike come from different tables or passages of the source.

Experiments:
[1] = test system: adult patients having asthma bronchiale; assay: Clinical trial for adults; type: in vivo, human; settings: oral
From the text: A clinical trial was made by administering 2-(3',[…]-dimethoxycinnamoylamino)-benzoic acid orally to adult patients having asthma bronchiale. These patients having asthma bronchiale were chosen from those suffering from atopic and mixed forms. Determination of the effect were integrally judged from the extent of subjective symptoms (the number of asthma attacks, the degree of dyspnea, wheeze, the number of cough attacks and sputum expectoration), objective findings (dry rale) and pulmonary function test.
(§1) The effect was evaluated by five grades of "remarkable improvement", "moderate improvement", "slight improvement", "unchanged", and "aggravated". A daily dose (400-600 mg) of the active compound in the powdery preparation obtained in Example 12 was administered orally to patients in equal portions four times daily, ie, after every meal and before sleeping.

[2] = test system: child patients having asthma bronchiale; assay: Clinical trial for children; type: in vivo, human; settings: oral
From the text: A clinical trial was made by orally administering Compound No. 33 to child patients having asthma bronchiale. Child patients having asthma bronchiale in atopic and mixed forms were chosen for the clinical trial. Determination of the effect was integrally judged from the extent of subjective symptoms (the number of asthma attacks, the degree of dyspnea, wheeze, the number of cough attacks and sputum expectoration), objective findings (dry rale) and pulmonary function test.
as §1, with “"unchanged"and” for “"unchanged", and”, “(100-200” for “(400-600”, “a day, i.e.,” for “daily, ie,”

[3] = Acute Toxicity (LD50) in rats; type: in vivo; settings: rat, in vivo, mortality on the 8th day
Method: (§2) The median lethal dose (LD50) of the new aromatic carboxylic acid amide derivatives of this invention were determined in dd-stain male and female mice (6 weeks old) by oral administration and in Wistar strain male and female rats (7 weeks old) by oral and intraperitoneal administration. Each animal selected for the experiment was maintained in an air conditioned room at a temperature of 22° ± 1° C and a relative humidity of 55 ± 5% during the full course of the experiment. All animals were fed compressed pellets (CE-2 type produced by Japan CLEA Co.) and water was available ad libitum by bottle. Five groups of ten animals for each administration route were used.
(§3) Since these compounds were isoluble in water, they were suspended in a 0.5% aqueous solution of carboxymethylcellulose at each dosage level. The administrative volume of each agent to 10 g body weight mouse was 0.2 ml for oral administration, while that to 100g body weight of rat was 0.5 ml for intraperitoneal and oral administrations.
(§4) The LD50 values were calculated from the mortality on the 8th day by the Litchfield-Wilcoxon's method.

Wistar strain rats = assay: Acute Toxicity (LD50) in rats; type: in vivo; settings: mortality on the 8th day, 11520 min
Method: as §2, §3, §4

[4] = test system: experimental asthma in rats; assay: Experimental Asthma in Rats; type: in vivo, rat; settings: for minimal effective dose: Rattus norvegicus, oral, 2 hours before antigen injection
Method: Twenty normal male rats weighing 120-150 g were divided into four groups each consisting of five rats. All of the rats were sensitized passively by means of intravenous injection of rat reaginic antibody. After a lapse of 22 hours of sensitization, 5 milliliters of a 1% aqueous solution of NaHCO3 containing (3',4'-dimethoxycinnamoylamino)-benzoic acid* in a dose of 0 mg/kg (control), 5 mg/kg, 10 mg/kg and 20 mg/kg were orally administered to the rats in each group, and then canulation was begun on both the trachea and the common carotid artery on the rats. The rate and volume of respiration and systemic blood pressure were recorded simultaneously on a polygraph.
After 2 hours of administration, the challenge symptoms were subjected, by means of injection of the antigen, and the results are shown in the drawing attached herewith.

[5] = Acute Toxicity (LD50) in mice; type: in vivo; settings: mouse, in vivo, po, mortality on the 8th day
Method: as §2, §3, §4

dd-stain mice = assay: Acute Toxicity (LD50) in mice; type: in vivo; settings: oral, mortality on the 8th day, 11520 min
Method: as §2, §3, §4

[6] = test system: sensitized mesenteric mast cells; assay: Effect on the Disruption of the Sensitized Mast Cells; type: cell-based, rat; settings: 10^-5 g/ml, 5 minutes prior to the treatment of antigen
Method: Mesenteric mast cells isolated from normal rats were sensitized passively by means of incubation with rat reaginic antibody at 37° C. After termination of the incubation, the specific antigen (DNP-Ascaris) was added to the incubation medium, then these mast cells in mesentery were fixed with formalin and stained with 0.1 % toluidine blue (in acetic acid buffer; pH: 4.6). The number of mast cells disrupted as a consequence of the antigen-antibody reaction were counted under a microscope. The number of the mast cells disrupted were also counted without the addition of the specific antigen.
A given test compound dissolved in 1 % NaHCO3 solution was added to the incubation medium at a concentration of 10^-5 g/ml, 5 minutes prior to the treatment of antigen, while only the vehicle was added to the control group.
The efficacy of the test compounds to inhibit the mast cell disruption was compared with the value (%) calculated using the following formula: [formula] wherein P stands for the percentage of disrupted mast cells in the control group, Q for the percentage of mast cells disrupted spontaneously and R for the percentage of disrupted mast cells in the group treated with a given test compound.

[7] = test system: homologous passive cutaneous anaphylaxis (antigen-antibody reaction); assay: Homologous Passive Cutaneous Anaphylaxis in Rats; type: in vivo, rat (Wistar male); settings: Rattus norvegicus, po; 200 mg/kg orally 2 hours prior to the injection of antigen
Method: Wistar male rats weighing 120-150 g were used in this experiment. […]. Normal rats were sensitized passively with dilution of the antibody by means of intradermal injection. After 48 hours of the sensitization, the mixture of antigen (EA) and evens blue was injected intravenously. The animals were killed by a blow on the head 30 minutes after the injection, and then the blue spot resulted from the antigen-antibody reaction was measured photometrically.
A given test compound dissolved in 1 % NaHCO3 solution was administrated in a dose of 200 mg/kg orally 2 hours prior to the injection of antigen, while only the vehicle solution was administered to the control group.
The efficacy of the test compounds to inhibit the homologous passive cutaneous anaphlaxis was compared with the value (%) calculated using the following formula: [formula] wherein A stands for the amount of leaked dye in control group and B for the amount of leaked dye in the group administered with a given test compound.

mast cells = settings: known art, cited from earlier work
[8] = test system: antiallergic action, oral administration to mammalia; settings: known art; cited from earlier work

COc1ccc(C=CC(=O)Nc2ccccc2C(=O)O)cc1OC [Compound No. 33, N-(3',4'-dimethoxycinnamoyl)-anthranilic acid]
Evaluation ([1]; 400mg × 14 days): slight imp. | Side effect ([1]; 400mg × 14 days): none | Evaluation ([1]; 400mg × 21 days): mod. impr. | Side effect ([1]; 400mg × 21 days): none | Side effect ([1]; 600mg × 14 days): none | Evaluation ([1]; 600mg × 14 days, row): slight imp; also recorded: mod. impr | Evaluation ([1]; 600mg × 20 days): unchanged | Side effect ([1]; 600mg × 20 days): none | Evaluation ([1]; 600mg × 21 days): unchanged | Side effect ([1]; 600mg × 21 days): none | Evaluation ([1]; 600mg × 24 days): mod. impr. | Side effect ([1]; 600mg × 24 days): none | Evaluation ([2]; 200 mg × 15 days): mod. impr. | Side effect ([2]; 200 mg × 15 days): none | Evaluation ([2]; 200 mg × 29 days): slight impr. | Side effect ([2]; 200 mg × 29 days): none | Evaluation ([2]; 200 mg × 35 days): slight imp. | Side effect ([2]; 200 mg × 35 days): none | LD50 at 192 h ([3]; ip, intraperitoneal): 385 mg/kg | LD50 at 192 h ([3]; po): 1850 mg/kg | LD50 (Wistar strain rats; intraperitoneal): 338 mg/kg | LD50 (Wistar strain rats; oral): 2030 mg/kg | minimal effective dose ([4]; read-out: dose showing inhibition of decrease in the rate of respiration): ≥ 5 mg/kg | minimal effective dose ([4]; read-out: dose showing inhibition of decrease in the volume of respiration): ≥ 10 mg/kg | Asthmatic symptoms resulting from the challenge ([4]; oral 5, 10, 20 mg/kg): observed in the control group only | effect on depression of blood pressure just after the challenge ([4]; oral 5, 10, 20 mg/kg, just after the challenge): no inhibiting effect | effect on subsequent depression of blood pressure ([4]; oral 5, 10, 20 mg/kg, subsequent depression): showed an inhibiting effect on subsequent depression | LD50 at 192 h [5]: 705 mg/kg | LD50 (dd-stain mice): 500 mg/kg | Inhibition percentage (mast cell disruption) [6]: 33% | inhibition at 200 mg/kg [7]: 46.1%

O=C(O)c1cc(=O)c2c(OCC(O)COc3cccc4oc(C(=O)O)cc(=O)c34)cccc2o1 [Disodium cromoglycate]
Inhibition percentage (mast cell disruption) [6]: 16% | inhibition of mast cell disruption (in words) (mast cells): inhibitor of mast cell disruption | inhibition of mast cell disruption (in words) (mast cells; listed as disodium cromoglycate): inhibits the disruption of mast cells and release therefrom of chemical mediators | pharmacological effect when administered orally (in words) [8]: loses its pharmacological effect when administered orally
